Entries after “also recorded” stand apart in the source; their conditions may differ. Values belong to the molecule of their own block, whether it stands above or below them.
Experiments:
Assay type in all cases: cell-based
[1] = tested on: Drp1-Ser616 phosphorylation; assay: Drp1 ratio assay with chemiluminescence format; details: ADP 20 μM; for Time to maximum Drp1 ratio after exposure to agonist: arachidonic acid 500 μg/mL, SFLLRN 25 μM, elevated by 5 minutes
Description: Samples were subsequently lysed and assessed by either colorimetric or chemiluminescence ELISAs. […] Samples were activated with the indicated platelet agonist [A: ADP (20 μM); […] Samples were left at room temperature for the indicated amount of time prior to freezing (−80° C.) and were subsequently analyzed using the Drp1 ratio assay with a chemiluminescence format. […] FIGS. 12A-12C show activation time studies with various platelet agonists. Platelets were exposed to agonists and subsequently analyzed using the Drp1 ratio assay with a chemiluminescence format.

[2] = tested on: Drp1-Ser616 phosphorylation; assay: Western blot of Drp1 Ser616 phosphorylation in platelets; details: for Drp1 phosphorylation at Ser616 elicited by the agent: platelets incubated with the agent; for Effect on SFLLRN-induced (PAR1-mediated) Drp1-Ser616 phosphorylation: platelets
[3] = tested on: Drp1-Ser637 phosphorylation; assay: Western blot of Drp1 Ser637 phosphorylation in platelets
[4] = tested on: Drp1-Ser616 phosphorylation; assay: MAP kinase inhibition studies, ELISA of agonist-induced Drp1-Ser616 phosphorylation in twice washed platelets; details: agonists SFLLRN, U46619, collagen, ADP or AYPGKF; SB203580 20 μM, PD0325901 5 μM, SP600125 5 μM
Description: Using twice washed platelets, 400 μL aliquots were incubated at 37° C. for 30 min with SB203580 (20 μM), PD0325901 (5 μM), SP600125 (5 μM) or left untreated and then activated with respective agonist for 10 min at 37° C. Subsequently, 100 μL of 5×RIPA buffer was added and samples were lysed on ice for minimum of 15 min. Samples were stored at −80° C. until assayed by ELISA.
(§1) Capture antibody (Ms Drp1 mAb) diluted in Tris-buffered saline (TBS) was incubated on plates at RT (2 hrs) or at 4° C. overnight. […] Wells were blocked with 3% BSA in TBST for a minimum of 1.5 hrs. […] Wells were again washed with TBST and incubated with either Rb Drp1 or p-Drp1 (Ser616) mAb at RT for 1 hr.

[5] = tested on: Drp1-Ser616 phosphorylation; assay: Drp1-Ser616 phosphorylation assay in whole blood; details: for Effect on SFLLRN-induced phospho-Drp1-Ser616 signal: whole blood; for Stimulation of Drp1-Ser616 phosphorylation: whole blood (thrombin: whole blood and platelet rich plasma)
[6] = tested on: Drp1-Ser616 phosphorylation; assay: Arachidonic acid-induced Drp1-Ser616 phosphorylation in platelets, ELISA dose response; details: Platelet; [arachidonic acid]=10 μg/mL; read-out: IC50, inhibition of arachidonic acid-induced phosphorylation of Drp1-Ser616
Description: Dilutions of Tyrode's buffer+3 mM aspirin were prepared. A modified platelet wash protocol was then performed. PRP [supplemented with 20% ACD (v/v) and PGE1 (1 μM)] was spun at 800 g for 12 min. After removal of the supernatant, platelet pellet was resuspended in Tyrode's buffer and allowed to rest at 37° C. for minimum of 25 min. Platelets were counted by Hemavet and were again supplemented with ACD and PGE1 before being aliquoted into microcentrifuge tubes and spun at 800 g for 12 min. Aliquots were of sufficient volume to permit a final platelet count of approximately 4×10^5/μL when platelet pellet was resuspended in 400 μL of Tyrode's buffer or Tyrode's buffer/aspirin dilution. After resuspension, samples were incubated at 37° C. for 1 hr before being activated for 10 min at 37° C. with arachidonic acid (Bio Data Corp. Horsham, PA) at a final concentration of 10 μg/mL. Samples were lysed with 100 μL 5×RIPA buffer on ice for a minimum of 15 min before being stored at −80° C. until assayed by ELISA.
as §1

[7] = tested on: Drp1-Ser616 phosphorylation; assay: SFLLRN-induced Drp1-Ser616 phosphorylation in washed platelets, ELISA dose response (phospho-Drp1-Ser616/total Drp1); details: Platelet; read-out: IC50, inhibition of SFLLRN-induced Drp1-Ser616 phosphorylation
Description: Serial dilutions of Vorapaxar and Cangrelor were prepared in DMSO. […] Vehicle only samples were also prepared and incubated at 37° C. Samples were subsequently lysed with 5×RIPA buffer and stored at −80° C. until assayed by ELISA.
as §1

platelet aggregation = assay: Platelet aggregometry, ADP-activated platelets; details: ADP 20 μM, compared with Drp1 ratio assay

Molecule: Nc1ncnc2c1ncn2[C@@H]1O[C@H](COP(=O)(O)OP(=O)(O)O)[C@@H](O)[C@H]1O [ADP]
- Time to maximum Drp1 ratio after exposure to agonist [1]: approximately 12. 5 minutes
- Drp1 phosphorylation at Ser616 elicited by the agent [2]: resulted in 5616-Drp1 phosphorylation

Molecule: CCCCCCOC(=O)[C@]1(O)C[C@@H]2O[C@@]1(C)n1c3ccccc3c3c4c(c5c6ccccc6n2c5c31)C(=O)NC4 [KT5720]
- Effect on forskolin-mediated Drp1-Ser637 phosphorylation [3]: completely abolished

Molecule: CNc1nc(Cl)nc2c1ncn2CC(COC(=O)C(C)(C)C)COC(=O)C(C)(C)C [MRS 2395]
- Effect on ADP-induced Drp1-Ser616 phosphorylation ([2]; platelets incubated with ADP): inhibited

Molecule: O=C(NOC[C@H](O)CO)c1ccc(F)c(F)c1Nc1ccc(I)cc1F [PD0325901]
- Effect on agonist-induced Drp1-Ser616 phosphorylation [4]: modest inhibition

Molecule: Cn1cc(C2=C(c3cn(CCCSC(=N)N)c4ccccc34)C(=O)NC2=O)c2ccccc21 [Ro 31-8220]
- Effect on SFLLRN-induced (PAR1-mediated) Drp1-Ser616 phosphorylation [2]: failed to inhibit

Molecule: C[S+]([O-])c1ccc(-c2nc(-c3ccncc3)c(-c3ccc(F)cc3)[nH]2)cc1 (stereo not shown) [SB203580]
- Effect on agonist-induced Drp1-Ser616 phosphorylation [4]: potently blocked
- Effect on SFLLRN-induced (PAR1-mediated) Drp1-Ser616 phosphorylation [2]: inhibited
- Effect on SFLLRN-induced phospho-Drp1-Ser616 signal [5]: inhibited

Molecule: Oc1c2ccccc2c2c3c(cccc13)N=N2 [SP600125]
- Effect on agonist-induced Drp1-Ser616 phosphorylation [4]: failed to inhibit

Molecule: CCCCC[C@H](O)/C=C/[C@@H]1[C@@H](C/C=C\CCCC(=O)O)[C@H]2CO[C@@H]1C2 [U46619]
- Drp1 phosphorylation at Ser616 elicited by the agent [2]: Phosphorylation of Drp1 at S616 was observed
- Stimulation of Drp1-Ser616 phosphorylation [5]: significant stimulation

Molecule: CCCCC/C=C\C/C=C\C/C=C\C/C=C\CCCC(=O)O [arachidonic acid]
- Time to maximum Drp1 ratio after exposure to agonist [1]: approximately 12. 5 minutes
- Stimulation of Drp1-Ser616 phosphorylation [5]: significant stimulation

- IC50 [6]: ~1000 nM
Molecule: CC(=O)Oc1ccccc1C(=O)O [aspirin, acetylsalicylic acid]

- IC50 [7]: ~2 nM
Molecule: CSCCNc1nc(SCCC(F)(F)F)nc2c1ncn2[C@@H]1O[C@H](COP(=O)(O)OP(=O)(O)C(Cl)(Cl)P(=O)(O)O)[C@@H](O)[C@H]1O [cangrelor]
- Sensitivity of Drp1 ratio assay to inhibition ([1]; compared with platelet aggregometry): equally sensitive
- Sensitivity of platelet aggregometry to inhibition (platelet aggregation): equally sensitive

Molecule: O=C1CCc2cc(OCCCCc3nnnn3C3CCCCC3)ccc2N1 [cilostazol]
- Effect on SFLLRN-induced (PAR1-mediated) Drp1-Ser616 phosphorylation [2]: blocks; also recorded: sensitive; also recorded: prevents phophorylation at Ser616

Molecule: COC(=O)[C@H](c1ccccc1Cl)N1CCc2sccc2C1 [clopidogrel]
- Effect on SFLLRN-induced phospho-Drp1-Ser616 signal [5]: inhibited

- IC50 [7]: ~5 nM
Molecule: CCOC(=O)N[C@@H]1CC[C@@H]2[C@@H](C1)C[C@H]1C(=O)O[C@H](C)[C@H]1[C@H]2/C=C/c1ccc(-c2cccc(F)c2)cn1 [vorapaxar]
- Effect on SFLLRN-induced phospho-Drp1-Ser616 signal [5]: inhibited

Molecule: SFLLRN
- Time to maximum Drp1 ratio after exposure to agonist [1]: approximately 12. 5 minutes
- Drp1 phosphorylation at Ser616 elicited by the agent [2]: Phosphorylation of Drp1 at S616 was observed
- Time at which phospho-Drp1-Ser616 signal reaches peak ([5]; following activation of platelets by SFLLRN (FIG. 6C)): 15 min
- Increase in phospho-Drp1-Ser616 to total Drp1 ([5]; stimulation of whole blood): greater than 2 fold

Molecule: collagen
- Drp1 phosphorylation at Ser616 elicited by the agent [2]: Phosphorylation of Drp1 at S616 was observed

Molecule: thrombin
- Stimulation of Drp1-Ser616 phosphorylation [5]: significant increases

From patent US12235278B2, “Compositions and methods for evaluation of antiplatelet drug sensitivity” (Beth Israel Deaconess Medical Center, Inc., priority 2018, dated 2025)
